Experimental data taken from US20080200535A1, “Amine Compounds” (Asahi Kasei Pharma Corporation, priority 2006, published 2008).

Tests used:
[1] = target: T1, S1P1 receptor (Homo sapiens, UniProt P21453); experiment: 35S-GTPγS binding assay using membrane preparation of CHO cell stably expressing S1P1 receptor; format: biochemical; conditions: agonist activity
T1 construct: expressed in transfected cells; membrane preparation
Method: ^35s-GTPγS binding assay using membrane preparation of CHO cell stably expressing S1P1 receptor
A G protein-GTPγS binding test associated with a ligand was performed by using a membrane preparation which was obtained from a CHO cell which stably overexpressed S1P1 receptor. In a 96 well-micro-titer dish, the produced membrane protein and a compound which was diluted with a solvent such as DMSO or sphingosine-1-phosphate in various concentrations was incubated in a solution containing 20 mM of Tris-Cl (pH7.5), 100 mM of NaCl, 10 mM of MgCl2, 5μM of GDP, 0.1% of BSA, and […] of ^35s-GTPγS (specific radioactivity, 1250 Ci mmol). The binding was performed for 1 or more hours at room temperature, and the membrane was harvested on a GF/B filter plate by using a Millipore's MultiScreen Separation System to end the binding. After the filter plate was dried for 30 or more minutes, 25 μL of MicroScint-20 was added to each well, and the binding was measured by using the TopCount.
For the agonist activity of compound, the value of a well which a solvent was added to was set to a control value and compared with an increment of an evaluation compound-added well, so that the increment of each concentration of the compound was obtained. EC50 value was calculated under the definition that the value is an agonist concentration required to provide 50% of the maximum increment thereof. […]

[2] = target: T2, S1P3 receptor (Homo sapiens, UniProt Q99500); experiment: 35S-GTPγS binding assay using membrane preparation of CHO cell temporarily expressing S1P3 receptor; format: biochemical; conditions: agonist activity, membrane of CHO cell temporarily transfected with S1P3 gene
T2 construct: expressed in transfected cells; host or cells: CHO cells, transient transfection; membrane protein
Method: ^35s-GTPγS binding assay using membrane preparation of CHO cell of temporarily expressing S1P3 receptor
A GTPγS binding test associated with S1P3 receptor was performed by using the same method as that of the GTPγS binding test associated with S1P1 receptor. In the test, a membrane protein which was produced from a CHO cell in which S1P3 gene was temporarily transfected was used.
For the agonist activity of compound, the value of a well which a solvent was added to was set to a control value and compared with an increment of an evaluation compound-added well, so that the increment of each concentration of the compound was obtained. EC50 value was calculated under the definition that the value is an agonist concentration required to provide 50% of the highest increment thereof.

[3] = test system: peripheral lymphocytes; experiment: Evaluation of reduction in peripheral blood lymphocyte count; format: in vivo; conditions: 3 h; rat, oral; dose required to reduce the lymphocyte count by 50% in three hours from the administration
Method: Evaluation of Reduction in Peripheral Blood Lymphocyte count
A compound or a solvent was orally administered to a rat. When 3, 6, 24, 48, and 72 hours had elapsed since the administration of compound, blood was withdrawn from its tail vein. All the blood samples were analyzed hematologically. The total count of peripheral lymphocytes was measured by using an auto-analyzer (Sysmex 2000Xi). The effect of each compound to the total count of peripheral lymphocytes was evaluated by using three or more rats in one group. The reduction in lymphocyte count caused by the administration of compound was compared with that caused by the administration of solvent to a rat group. Namely, the average lymphocyte count of a solvent-administered group was set to 100%, and a control value (%) was calculated from the average lymphocyte count of a compound-administered group. An ED50 value, that is, a dosed amount of the compound required to reduce the lymphocyte count by 50% in three hours from the administration was calculated from the dosed amount of the compound and the control value (%).

T1 sequence (P21453 whole entry): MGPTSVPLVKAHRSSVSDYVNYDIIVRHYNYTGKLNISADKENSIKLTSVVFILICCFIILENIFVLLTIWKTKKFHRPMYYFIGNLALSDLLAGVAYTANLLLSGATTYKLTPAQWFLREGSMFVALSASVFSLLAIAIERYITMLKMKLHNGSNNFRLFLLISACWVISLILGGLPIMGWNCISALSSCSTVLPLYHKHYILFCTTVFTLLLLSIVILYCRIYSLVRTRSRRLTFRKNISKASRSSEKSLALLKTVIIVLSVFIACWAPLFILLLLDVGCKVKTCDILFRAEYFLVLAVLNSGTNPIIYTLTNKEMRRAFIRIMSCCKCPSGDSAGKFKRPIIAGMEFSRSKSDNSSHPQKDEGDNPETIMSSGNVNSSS
T2 sequence (Q99500 whole entry): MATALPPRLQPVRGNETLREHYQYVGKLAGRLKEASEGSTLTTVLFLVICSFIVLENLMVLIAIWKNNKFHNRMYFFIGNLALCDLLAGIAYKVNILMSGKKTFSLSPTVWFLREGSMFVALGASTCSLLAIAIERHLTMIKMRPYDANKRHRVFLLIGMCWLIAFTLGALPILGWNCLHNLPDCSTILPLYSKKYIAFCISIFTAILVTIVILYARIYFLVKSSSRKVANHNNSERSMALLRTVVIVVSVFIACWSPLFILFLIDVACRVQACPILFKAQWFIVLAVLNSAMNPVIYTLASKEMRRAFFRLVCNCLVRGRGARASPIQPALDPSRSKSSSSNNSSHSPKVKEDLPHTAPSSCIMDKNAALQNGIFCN

| Structure (SMILES) | EC50 [1] | EC50 [2] | ED50 [3] |
| --- | --- | --- | --- |
| O=C(O)[C@H]1CCC[C@H](NCc2ccc(OCc3cc(-c4ccccc4)c(C(F)(F)F)s3)cc2)C1 [Example 4] | 34 nM | 870 nM | – |
| O=C(O)C1CC(NCc2ccc(OCc3cc(-c4ccccc4)c(C(F)(F)F)s3)cc2)C1 (stereo not shown) [Example 6] | – | – | 5.1 mg/kg |
| O=C(O)[C@H]1CC[C@H](NCc2ccc(OCc3cc(-c4ccccc4)c(C(F)(F)F)s3)cc2)C1 [Example 25] | 4 nM | 117 nM | – |
| CC(C)Cc1ccc(-c2nc(-c3ccc(CNCCC(=O)O)cc3)no2)cc1.Cl [Example 40] | 0.5 nM | – | 0.71 mg/kg |
| CC(C)COc1ccc(-c2nc(-c3ccc(CNCCC(=O)O)cc3)no2)cc1C(F)(F)F.Cl [Example 46] | 0.5 nM | – | 2.1 mg/kg |
| Cl.O=C(O)CCNCc1ccc(-c2noc(C3CCC(c4ccccc4)CC3)n2)cc1 (stereo not shown) [Example 61] | 1.5 nM | – | 0.53 mg/kg |
| N#Cc1ccccc1-c1ccc(-c2nc(-c3ccc(CNCCC(=O)O)cc3)no2)c(F)c1 [Example 88] | 10 nM | – | – |
| Cl.N#Cc1ccccc1-c1ccc(-c2nc(-c3ccc(CNCCC(=O)O)cc3)no2)cc1C#N [Example 90] | 1.4 nM | – | 4.1 mg/kg |
| Cl.N#Cc1ccccc1-c1ccc(-c2nc(-c3ccc(CNCCC(=O)O)cc3)no2)cc1C(F)(F)F [Example 93] | 0.48 nM | – | 0.64 mg/kg |
| O=C(O)CCNCc1ccc(-c2noc(-c3ccc(-c4ccccc4)cn3)n2)cc1 [Example 95] | 25 nM | – | – |
| O=C(O)CCNCc1ccc(-c2noc(-c3ccc(-c4ccccc4C(F)(F)F)c(C(F)(F)F)c3)n2)cc1 [Example 99] | 1.3 nM | – | – |
| O=C(O)CCNCc1ccc(-c2noc(-c3ccc(-c4ccccc4OC(F)(F)F)c(C(F)(F)F)c3)n2)cc1 [Example 100] | 1.7 nM | – | – |
| CCc1cc(-c2nc(-c3ccc(CNCCC(=O)O)cc3)no2)ccc1-c1ccccc1C#N [Example 102] | 0.41 nM | – | – |
| O=C(O)CCNCc1ccc(-c2noc(-c3ccc(/C=C/C(F)(F)F)cc3)n2)cc1 [Example 103] | 3.9 nM | – | – |
| Cl.O=C(O)CCNCc1ccc(-c2noc(-c3ccc(CCC(F)(F)F)cc3)n2)cc1 [Example 104] | 2.1 nM | – | 0.7 mg/kg |
| Cl.O=C(O)CCNCc1ccc(-c2noc(-c3ccc(-c4ccccc4)c(OC(F)(F)F)c3)n2)cc1 [Example 105] | 0.49 nM | – | 0.084 mg/kg |
| Cl.N#Cc1ccccc1-c1ccc(-c2nc(-c3ccc(CNCCC(=O)O)cc3)no2)cc1OC(F)(F)F [Example 106] | 1.2 nM | – | 0.5 mg/kg |

| Structure (SMILES) | EC50 [1] | EC50 [2] | ED50 [3] |
| --- | --- | --- | --- |
| Cc1cc(-c2nc(-c3ccc(CNCCC(=O)O)cc3)no2)ccc1-c1ccco1 [Example 116] | 1.5 nM | – | – |
| Cc1cc(-c2nc(-c3ccc(CNCCC(=O)O)cc3)no2)ccc1-c1ccccc1C(C)C [Example 118] | 0.45 nM | – | – |
| O=C(O)CCNCc1ccc(-c2noc(-c3ccc(-c4ccccc4F)s3)n2)cc1 [Example 120] | 3.6 nM | – | – |
| CC(C)Cc1ccc(-c2nc(-c3ccc(CNCCC(=O)O)s3)no2)cc1 [Example 128] | 16 nM | – | – |
| O=C(O)[C@H]1C[C@H](NCc2ccc(-c3noc(-c4cc(-c5ccccc5)c(C(F)(F)F)s4)n3)cc2)C1 [Example 130] | 4.5 nM | – | – |
| Cc1cc(-c2nc(-c3ccc(CN[C@H]4C[C@H](C(=O)O)C4)cc3)no2)ccc1-c1ccccc1 [Example 134] | 1.2 nM | – | – |
| CC(C)COc1ccc(-c2nc(-c3ccc(CN[C@H]4C[C@H](C(=O)O)C4)cc3)no2)cc1C(F)(F)F [Example 136] | 4 nM | – | – |
| O=C(O)[C@@H]1CC[C@@H](NCc2ccc(-c3noc(-c4cc(-c5ccccc5)c(C(F)(F)F)s4)n3)cc2)C1 [Example 138] | 21 nM | – | – |
| CC(C)Cc1ccc(-c2nc(-c3ccc(CN[C@@H]4CC[C@@H](C(=O)O)C4)cc3)no2)cc1 [Example 139] | 23 nM | – | – |
| Cc1cc(-c2nc(-c3ccc(CN[C@@H]4CC[C@@H](C(=O)O)C4)cc3)no2)ccc1-c1ccccc1 [Example 142] | 6.7 nM | – | – |
| Cc1cc(CN[C@H]2C[C@H](C(=O)O)C2)ccc1-c1noc(-c2ccc(CC(C)C)cc2)n1 [Example 146, (1R,3R)-3-(4-(5-(4-isobutylphenyl)-1,2,4,-oxadiazol-3-yl)-3-methylbenzylamino)cyclobutanecarboxylic acid] | 4.5 nM | – | – |
| Cc1cc(CNC2CC(C(=O)O)C2)ccc1-c1noc(-c2ccc(-c3ccccc3C#N)c(C)c2)n1 (stereo not shown) [Example 147] | 2.4 nM | – | 0.72 mg/kg |
| O=C(O)CCNCc1ccc(OCc2cc(-c3ccccc3)c(C(F)(F)F)s2)cc1Cl [Example 149] | 4.5 nM | – | – |
| COc1cc(OCc2cc(-c3ccccc3)c(C(F)(F)F)s2)ccc1CNCCC(=O)O [Example 150] | 37 nM | – | – |
| O=C(O)CCNCc1ccc(OCc2cc(-c3ccccc3)c(C(F)(F)F)s2)c(Br)c1 [Example 151] | 27 nM | – | – |
| O=C(O)CCNCc1ccc(OCc2cc(-c3ccccc3)c(C(F)(F)F)s2)c(F)c1 [Example 152] | 6.4 nM | – | – |

The remaining compounds from weak to strong by EC50 [1], led by results:

| EC50 [1] | EC50 [2] | Structure (SMILES) | ED50 [3] |
| --- | --- | --- | --- |
| 0.41 nM | – | CCc1cc(-c2nc(-c3ccc(CNCCC(=O)O)cc3)no2)ccc1-c1ccccc1 [Example 101] | – |
| 0.37 nM | – | O=C(O)CCNCc1ccc(-c2noc(-c3ccc(-c4ccccc4F)c(C(F)(F)F)c3)n2)cc1 [Example 98] | – |
| 0.35 nM | – | Cc1ccccc1-c1ccc(-c2nc(-c3ccc(CNCCC(=O)O)cc3)no2)cc1C [Example 110] | – |
| 0.34 nM | – | Cc1cc(-c2nc(-c3ccc(CNCCC(=O)O)cc3)no2)ccc1-c1cccs1 [Example 112] | – |
| 0.31 nM | – | Cc1cc(-c2nc(-c3ccc(CNCCC(=O)O)cc3)no2)ccc1-c1ccccc1C(F)(F)F [Example 86] | – |
| 0.29 nM | – | CCc1cc(-c2nc(-c3ccc(CNCCC(=O)O)cc3)no2)ccc1-c1ccccc1F [Example 108] | – |
| 0.27 nM | – | Cc1cc(CNCCC(=O)O)ccc1-c1noc(-c2ccc(CC(C)C)cc2)n1 [Example 144] | – |
| 0.26 nM | – | Cc1cc(-c2nc(-c3ccc(CNCCC(=O)O)cc3)no2)ccc1-c1ccccc1C#N.Cl [Example 78] | 0.37 mg/kg |
| 0.25 nM | – | Cc1cc(-c2nc(-c3ccc(CNCCC(=O)O)cc3)no2)ccc1C1CCCC1 [Example 91] | – |
| 0.25 nM | – | Cl.O=C(O)CCNCc1ccc(-c2noc(-c3ccc(-c4ccccc4)c(C(F)(F)F)c3)n2)cc1 [Example 94] | 0.087 mg/kg |
| 0.2 nM | – | Cc1cc(-c2nc(-c3ccc(CNCCC(=O)O)cc3)no2)ccc1C1CCCCC1 [Example 92] | – |
| 0.2 nM | – | O=C(O)CCNCc1ccc(-c2noc(-c3cc(-c4ccccc4)c(C(F)(F)F)s3)n2)s1 [Example 124] | – |
| 0.2 nM | – | Cc1cc(CNCCC(=O)O)ccc1-c1noc(-c2ccc(-c3ccccc3C#N)c(C)c2)n1 [Example 145] | 0.46 mg/kg |
| 0.19 nM | – | Cc1cc(-c2nc(-c3ccc(CNCCC(=O)O)cc3)no2)ccc1-c1ccccc1OC(F)(F)F [Example 114] | – |
| 0.17 nM | – | N#Cc1cc(-c2nc(-c3ccc(CNCCC(=O)O)cc3)no2)ccc1-c1ccccc1F [Example 89] | – |
| 0.17 nM | – | Cc1cc(-c2nc(-c3ccc(CNCCC(=O)O)cc3)no2)ccc1-c1ccccc1Cl [Example 111] | – |
| 0.07 nM | – | Cc1cc(-c2nc(-c3ccc(CNCCC(=O)O)cc3)no2)ccc1-c1ccsc1 [Example 113] | – |
| 0.07 nM | – | Cc1cc(-c2nc(-c3ccc(CNCCC(=O)O)cc3)no2)ccc1-c1ccoc1.Cl [Example 117] | 0.88 mg/kg |
| 0.04 nM | – | Cc1cc(-c2nc(-c3ccc(CNCCC(=O)O)cc3)no2)ccc1-c1cscc1C [Example 115] | – |
